Source: US20170073306A1, “POTENT INHIBITORS OF HUMAN CARBONIC ANHYDRASE II AND BOVINE CARBONIC ANHYDRASE II AND THEIR MECHANISM OF ACTION” (priority 2015, published 2017)
Like-named read-outs stand apart in the source and are kept apart here.

What was measured:
[1] = molecular target: T1, Bovine Carbonic Anhydrase-II (bovine erythrocyte CA-II) (Bos taurus, UniProt P00921); assay: Bovine carbonic anhydrase-II inhibition, 4-nitrophenyl acetate spectrophotometric assay; assay type: biochemical
T1 construct: pure bovine erythrocyte CA-II; from tissue; host or cells: bovine erythrocytes
Protocol: (§1) Nineteen different analogues of benzamide sulfonamides were evaluated for carbonic anhydrase-II inhibition. The rate of catalyzed reaction was monitored by the amount of product formation by using the chromogenic substrate i.e., 4-nitrophenyl acetate.
4-Nitrophenyl acetate (4-NPA) is a colorless compound which is used as a substrate in carbonic anhydrase inhibition assay. The reaction involves the hydrolysis of 4-nitrophenyl acetate into […] and 4-nitrophenol a yellow colored compound. During this experiment, HEPES-tris buffer was used at 20 mM concentration with pH 7.4.
After 15 min of incubation of the enzyme with the test compound, the substrate was added to initiate the reaction. The reaction was carried out in triplicate with different concentrations of test compounds was used.
In this assay protocol, the reaction was performed by using a 96-well flat bottom plate.
The amount of product formation was measured at 400 nm for 30 min with 1 min interval, multiplate reader SPECTRA max 340 (Molecular Devices, CA, USA) was used to monitor the product formation.
The enzyme inhibitory activities were calculated using the following formula:
% Inhibition=100−(O.D of test/O.D of control)*100
(§2) Where test is the enzyme activity with sample and control is the enzyme activity without sample. The IC50 of the compounds were calculated by using EZ-Fit Enzyme Kinetic Program (Perrella Scientific Inc. Amhrest, U.S.A).

MTT cytotoxicity assay = assay type: cell-based; details: mouse, 3T3 mouse fibroblast cells, 3T3 cells, 50% growth inhibition, read-out: Cytotoxicity IC50 ± SD
Protocol: Cytotoxicity studies were performed using a colorimetric assay that measures the reduction of 3-(4,5-dimethythiazol-2-yl)-2,5-diphenyl tetrazolium bromide (MTT) (yellow in color), by mitochondrial enzyme (i.e. succinate dehydrogenase). The MTT enters into the mitochondria of cell, where it is reduced to an insoluble formazan salt (purple in color). The extent of MTT reduction to formazan within cells was measured spectrophotometrically. As reduction of MTT can only occur in metabolically active cells the level of activity is actually a measure of the viability of the cells^22.
Mouse fibroblast cell line 3T3 was cultured in DMEM, supplemented with 5% of FBS, 100 IU/ml of penicillin and 100 μg/ml of streptomycin, and kept at 37° C. in 5% CO2 incubator. For the preparation of cell culture 100 μL/well of cell solution (5×10^4 cells/ml) was added into 96-well plate. The plate was incubated for overnight, and fresh medium was added after the removal of old medium. The test compounds were also added in different concentrations into the plate and plate was again incubated for 48 hrs. After the completion of this incubation period 200 μL MTT (0.5 mg/ml) was added and plate was again incubated for 4 hrs, after this final incubation 100 μL of DMSO was added to each well. The level of MTT reduction to formazan was evaluated by change in absorbance at 540 nm using a micro plate reader (Spectra Max plus, Molecular Devices, CA, USA).

[2] = molecular target: T2, Bovine Carbonic Anhydrase-II (Bos taurus, UniProt P00921); assay: Kinetics studies (Lineweaver-Burk, Dixon plots) against Bovine Carbonic Anhydrase-II; assay type: biochemical; design: Vmax app: unit not given here; details: for Type of Inhibition: Lineweaver-Burk / Dixon plots; for Vmax: enzyme Vmax without inhibitor; for Vmax app: apparent Vmax with inhibitor (0.2-0.00625 μM)
T2 construct: pure bovine erythrocyte CA-II; from tissue; host or cells: bovine erythrocytes
Protocol: FIG. 2B depicts the double reciprocal plot for Ki determination which is between Slope Vs Inhibitor Conc.
FIG. 3B depicts the double reciprocal plot for Ki determination which is between Slope Vs Inhibitor Conc.
Kinetics studies were performed for each analogue. […] The Grafit version 7.0 was used for the construction of Lineveawer-Burk plots and their secondary replots.

[3] = molecular target: T3, Human Carbonic Anhydrase-II (human erythrocyte CA-II) (Homo sapiens, UniProt P00918); assay: HCA-II inhibitory activity, 4-nitrophenyl acetate spectrophotometric assay; assay type: biochemical; details: 4-nitrophenyl acetate 0.7 mM, pH 7.4, 25° C., 15 min preincubation; read-out: IC50 ± S.E.M. HCA-II
T3 construct: purified human erythrocyte CA-II; from tissue; host or cells: human erythrocytes
Protocol: as §1
Hydrolysis of 4-NPA (a colorless compound): yields 4-nitrophenol and […]. The reaction is monitored by quantifying the formation of 4-nitrophenol, a yellow colored compound.
In successive experiments, HEPES-tris was used as a buffer for the reaction at final concentration of 20 mM, with 7.4 pH. The total reaction volume of 200 μL includes, 140 μL of the HEPES-tris, 20 μL of test compound diluted in DMSO (20 μL of DMSO as a control sample), 20 μL of purified human erythrocyte CA-II (0.1 mg/mL) prepared in deionized water and 20 μL of a solution of 4-NPA (0.7 mM diluted in ethanol). Adhesion of enzyme with the plastic-ware was avoided by the addition of bovine serum albumin (1 mg/mL).
The 20 μL of test compound was incubated with enzyme for a period of 15 min. The rate of product formation was monitored with the addition of 20 μL substrate prepared in ethanol at a final concentration of 0.7 mM 4-nitrophenyl acetate at 25° C. for a period of 30 min with regular interval of 1 min.
The assay was performed in triplicates by using 96-well flat bottom plate.
The enzyme inhibitory activities were calculated using the following formula: […]
as §2

[4] = 4-nitrophenyl acetate 0.7 mM, pH 7.4, 15 min preincubation, read-out: IC50 ± S.E.M. BCA-II
[5] = from secondary replots / Dixon plot, read-out: Ki

T1 sequence (P00921 whole entry): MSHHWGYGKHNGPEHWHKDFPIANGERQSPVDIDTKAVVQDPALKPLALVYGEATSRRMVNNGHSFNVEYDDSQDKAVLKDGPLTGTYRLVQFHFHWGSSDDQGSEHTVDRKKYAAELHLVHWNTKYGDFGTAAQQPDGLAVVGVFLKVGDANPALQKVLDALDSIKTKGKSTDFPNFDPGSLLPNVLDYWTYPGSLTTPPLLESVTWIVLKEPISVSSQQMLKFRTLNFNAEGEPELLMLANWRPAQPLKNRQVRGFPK
T2 sequence (P00921 whole entry): as above

| Structure (SMILES) | Type of Inhibition [2] | Vmax [2] | IC50 [1, 4] [nM] | IC50 [3] [nM] | Vmax app [2] | Ki [2, 5] [nM] | IC50 [1] [nM] | IC50 at 48 h (MTT cytotoxicity assay) [nM] | Ki [2] [nM] |
| --- | --- | --- | --- | --- | --- | --- | --- | --- | --- |
| NS(=O)(=O)c1ccc(NC(=S)NC(=O)c2ccccc2)cc1 [Compound 1, N-(4-Sulfamoylphenylcarbamothioyl)benzamide] | Noncompetitive | 99.00 (μM/L/min)^−1 | – | – | – | – | 90 ± 7 | > 30000 | 52 |
| NS(=O)(=O)c1ccc(NC(=S)NC(=O)c2ccc(Cl)cc2)cc1 [Compound 2, 4-Chloro-N-(4-sulfamoylphenylcarbamothioyl)benzamide] | Noncompetitive | 80 (μM/L/min)^−1 | 160 ± 2 | 210 ± 10 | 18.45 | 110 | – | > 30000 | – |
| NS(=O)(=O)c1ccc(NC(=S)NC(=O)c2ccc([N+](=O)[O-])cc2)cc1 [Compound 4, 4-Nitro-N-(4-sulfamoylphenylcarbamothioyl)benzamide] | Noncompetitive | 53.19 (μM/L/min)^−1 | 130 ± 2 | 240 ± 40 | 18.97 | 220 | – | > 30000 | – |
| NS(=O)(=O)c1ccc(NC(=S)NC(=O)c2cccc(Cl)c2)cc1 [Compound 5, 3-Chloro-N-(4-sulfamoylphenylcarbamothioyl)benzamide] | Noncompetitive | 76.33 (μM/L/min)^−1 | 140 ± 6 | 280 ± 60 | 25.83 | 250 | – | > 30000 | – |
| Cc1ccccc1C(=O)NC(=S)Nc1ccc(S(N)(=O)=O)cc1 [Compound 9, 2-Methyl-N-(4-sulfamoylphenylcarbamothioyl)benzamide] | Noncompetitive | 90.90 (μM/L/min)^−1 | 80 ± 2 | 180 ± 4 | 14.61 | 58 | – | > 30000 | – |
| Cc1cccc(C(=O)NC(=S)Nc2ccc(S(N)(=O)=O)cc2)c1 [Compound 10, 3-Methyl-N-(4-sulfamoylphenylcarbamothioyl)benzamide] | Noncompetitive | 62.5 (μM/L/min)^−1 | 90 ± 2 | 190 | 10.61 | 67 | – | > 30000 | – |
| COc1cccc(C(=O)NC(=S)Nc2ccc(S(N)(=O)=O)cc2)c1 [Compound 11, 3-Methoxy-N-(4-sulfamoylphenylcarbamothioyl)benzamide] | Noncompetitive | 88.49 (μM/L/min)^−1 | 90 ± 3 | 190 ± 5 | 35.21 | 280 | – | > 30000 | – |
| NS(=O)(=O)c1ccc(NC(=S)NC(=O)c2ccc(Cl)cc2[N+](=O)[O-])cc1 [Compound 12, 4-Chloro-2-nitro-N-(4-sulfamoylphenylcarbamothioyl)benzamide] | Mixed type | 108.69 (μM/L/min)^−1 | 280 ± 7 | 460 ± 30 | 34.12 | 24 | – | > 30000 | – |
| NS(=O)(=O)c1ccc(NC(=S)NC(=O)c2ccc(F)cc2)cc1 [Compound 13, 4-Fluoro-N-(4-sulfamoylphenylcarbamothioyl)benzamide] | – | – | 130 ± 20 | 580 ± 1 | – | – | – | > 30000 | – |
| COc1cc(OC)cc(C(=O)NC(=S)Nc2ccc(S(N)(=O)=O)cc2)c1 [Compound 16, 3,5-Dimethoxy-N-(4-sulfamoylphenylcarbamothioyl)benzamide] | Noncompetitive | 72.46 (μM/L/min)^−1 | 110 ± 5 | 230 ± 30 | 37.31 | 400 | – | > 30000 | – |
| NS(=O)(=O)c1ccc(NC(=S)NC(=O)C2CCCO2)cc1 (stereo not shown) [Compound 17, N-(4-Sulfamoylphenylcarbamothioyl)tetrahydrofuran-2-carboxamide] | Mixed type | 111.11 (μM/L/min)^−1 | 120 ± 20 | 270 ± 60 | 26.88 | 59 | – | > 30000 | – |
| CCC(C(=O)NC(=S)Nc1ccc(S(N)(=O)=O)cc1)c1ccccc1 (stereo not shown) [Compound 18, 2-Phenyl-N-(4-sulfamoylphenylcarbamothioyl)butanamide] | Mixed type | 42.73 (μM/L/min)^−1 | 200 ± 1 | 250 ± 10 | 12.93 | 160 | – | > 30000 | – |

The remaining molecules from weak to strong by IC50 [1, 4], led by results:

| Type of Inhibition [2] | Vmax [2] | IC50 [1, 4] [nM] | IC50 [3] [nM] | Vmax app [2] | Ki [2, 5] [nM] | Structure (SMILES) | IC50 [1] [nM] | IC50 at 48 h (MTT cytotoxicity assay) [nM] | Ki [2] [nM] |
| --- | --- | --- | --- | --- | --- | --- | --- | --- | --- |
| Mixed type | 80 (μM/L/min)^−1 | 80 ± 3 | 90 ± 30 | 52.63 | 58 | Cc1ccc(C(=O)NC(=S)Nc2ccc(S(N)(=O)=O)cc2)cc1 [Compound 3, 4-Methyl-N-(4-sulfamoylphenylcarbamothioyl)benzamide] | – | > 30000 | – |
| Mixed type | 82.64 (μM/L/min)^−1 | 80 ± 4 | 190 ± 1 | 17.48 | 90 | NS(=O)(=O)c1ccc(NC(=S)NC(=O)c2cccc([N+](=O)[O-])c2)cc1 [Compound 6, 3-Nitro-N-(4-sulfamoylphenylcarbamothioyl)benzamide] | – | > 30000 | – |
| Mixed type | 81.30 (μM/L/min)^−1 | 70 ± 3 | 160 ± 1 | 7.77 | 35 | NS(=O)(=O)c1ccc(NC(=S)NC(=O)Cc2ccccc2)cc1 [Compound 8, 2-Phenyl-N-(4-sulfamoylphenylcarbamothioyl)acetamide] | – | > 30000 | – |
| Mixed type | 71.42 (μM/L/min)^−1 | 60 ± 5 | 120 ± 2 | 19.30 | 140 | NS(=O)(=O)c1ccc(NC(=S)NC(=O)c2ccccc2[N+](=O)[O-])cc1 [Compound 7, 2-Nitro-N-(4-sulfamoylphenylcarbamothioyl)benzamide] | – | > 30000 | – |
| – | – | 60 | 170 ± 2 | – | – | COc1cc(C(=O)NC(=S)Nc2ccc(S(N)(=O)=O)cc2)cc(OC)c1OC [Compound 14, 3,4,5-Trimethoxy-N-(4-sulfamoylphenylcarbamothioyl)benzamide] | – | > 30000 | – |
| – | – | 60 ± 1 | 160 ± 10 | – | – | NS(=O)(=O)c1ccc(NC(=S)NC(=O)c2ccc([N+](=O)[O-])cc2Cl)cc1 [Compound 15, 2-Chloro-4-nitro-N-(4-sulfamoylphenylcarbamothioyl)benzamide] | – | > 30000 | – |
